Measurements from US8057806B2 (priority 2000, dated 2011).

Experiments:
viral replication = conditions: cited from earlier work
wild-type WSN-UdM virus = type: cell-based, influenza A virus

NC12CC3CC(CC(C3)C1)C2 [amantadine]
concentrations at which the drug selectively inhibits viral replication (viral replication): 0.1 to 5 µM | concentrations of nonspecific action (increase in pH of endosomes) (viral replication): > 50 μM | effect on virus yield and size of plaques (wild-type WSN-UdM virus): markedly reduced
